From US8304422B2, “Compositions and methods for inhibition of the JAK pathway” (Rigel Pharmaceuticals, Inc., priority 2007, dated 2012)

Tested on: BaF3 V617F cells; UKE-1
Assay: Proliferation Assay (Cell Titer-Glo; Example 7)
Assay type: cell-based
Settings: proliferation 72 hours, inhibit JAK2 activity, cell line (BaF3 V617F or UKE-1) not stated
Description: BaF3 V617F cells are maintained and plated in RPMI with 10% FBS. Plating density for these cells is 1×10^5 cells/mL.
UKE-1 are maintained and plated in Iscove's DMEM containing 10% FBS, 10% equine serum, 1% penicillin/streptomycin and 1 uM hydrocortisone. Plating density for these cells is 0.4×10^6 cells/mL
The cells were resuspended in a corresponding medium at a required cell density (see above). 100μ of cell suspension was added to each well of a flat bottom 96 well white plate. The compound was serially diluted in DMSO from 5 mM in 3-fold dilutions, and then diluted 1:250 in the RPMI 1640 medium containing 5% FBS and pen/strep. 100 μL of resulting 2× compound solution was added per well in duplicate and the cells were allowed to proliferate for 72 hours at 37° C.
Proliferation was measured using Cell Titer-Glo. The substrate was thawed and allowed to come to room temperature. After removal of top 100 μL of medium from each well, 100 μL of the premixed Cell Titer-Glo reagent was added to each well. The plates were mixed on an orbital shaker for three minutes to induce lysis and incubated at ambient temperature for an additional five minutes to allow the signal to equilibrate. The Luminescence was read on the Wallac Plate Reader.
The results of the ability of the compounds of the invention to inhibit JAK2 activity, when tested in the above assay, are shown in the following Table XI wherein the level of activity (i.e., the IC50) for each compound is indicated in Table XI. The compound numbers in Table XI refers to the compounds disclosed herein as being prepared by the methods disclosed herein: […]

Row | Compound | IC50 [nM]
1 | 5-Bromo-N4-[3-(N-tert-butylsulfonyl)phenyl]-N2-[4-(4-methylpiperazine)-phenyl]-2,4-pyrimidinediamine [I-18] | 832
2 | 5-Chloro-N2-(3,5-dimethyl-5-methoxyphenyl)-N4-[(4-(dimethylamino)sulfonylamino)methylphenyl]-2,4-pyrimidinediamine [II-90] | 83.6
3 | 5-Chloro-N2-[3,4-dimethyl-4-(2-(4-morpholinyl)ethoxy)phenyl]-N4-[2-methyl-4-((N-cyclopropylamino)sulfonylamino)methylphenyl]-2,4-pyrimidinediamine [II-183] | 142
4 | 5-Chloro-N2-[3,4-dimethyl-4-(2-(4-morpholinyl)ethoxy)phenyl]-N4-[4-((N-cyclopropylamino)sulfonylamino)methylphenyl]-2,4-pyrimidinediamine [II-170] | 40.2
5 | 5-Chloro-N2-[3-methyl-4-(methyl-1-piperazinyl)phenyl]-N4-[1,2,3,4-tetrahydro-2-(ethylsulfonyl)-5-isoquinolinyl]-2,4-pyrimidinediamine [VI-2] | 2800
6 | 5-Chloro-N4-[3,4-dihydro-1,1-dioxide-2H-1,2-benzothiazin-7-yl]-N2-[4-(N-methylpiperizin-4-yl)phenyl]-2,4-pyrimidinediamine [VII-2] | 371
7 | 5-Chloro-N4-[3,4-dihydro-1,1-dioxide-2H-1,2-benzothiazin-7-yl]-N2-[4-(N-methylpiperizin-4-yl)phenyl]-2,4-pyrimidinediamine [VII-5] | 13200
8 | 5-Chloro-N4-[3,4-dihydro-1,1-dioxide-2H-1,2-benzothiazin-7-yl]-N2-[5-methyl-4-(N-methylpiperizin-4-yl)pyridine-3-yl]-2,4-pyrimidinediamine [VII-4] | 558
9 | 5-Chloro-N4-[3-(N-cyclopropylsulfonylamino)methylphenyl]-N2-[4-(N-methylpiperizin-4-yl)phenyl]-2,4-pyrimidinediamine [II-191] | 466
10 | 5-Chloro-N4-[3-(N-tert-butylsulfonyl)phenyl]-N2-[3,4-trimethyl-4-methoxyphenyl]-2,4-pyrimidinediamine [I-16] | 17700
11 | 5-Chloro-N4-[3-(N-tert-butylsulfonyl)phenyl]-N2-[3,5-dimethyl-4-(2-(1-morpholino)ethoxyphenyl]-2,4-pyrimidinediamine [I-21] | 243
12 | 5-Chloro-N4-[4-(N-Cyclopropylsulfonylamino)methylphenyl]-N2-[3-methyl-4-[(1S,4S)-5-methyl-2,5-diazabicyclo[2.2.1]hept-2-yl]phenyl]-2,4-pyrimidinediamine [II-185] | 110
13 | 5-Chloro-N4-[4-(N-cyclopropyl-N-acetylsulfonylamino)methylphenyl]-N2-[3,4-dimethyl-5-methoxyphenyl]-2,4-pyrimidinediamine [II-217] | 233
14 | 5-Chloro-N4-[4-(N-cyclopropyl-N-propionylsulfonylamino)methylphenyl]-N2-[3,5-dimethyl-4-methoxyphenyl]-2,4-pyrimidinediamine [II-218] | 248
15 | 5-Chloro-N4-[4-(N-cyclopropylsulfonylamino)methylphenyl]-N2-[2,4-dimethyl-5-chlorophenyl]-2,4-pyrimidinediamine [II-213] | 2490
16 | 5-Chloro-N4-[4-(N-cyclopropylsulfonylamino)methylphenyl]-N2-[3,4-dimethyl-4-(2-(4-morpholinyl)ethoxy)phenyl]-2,4-pyrimidinediamine [II-160] | 29.9
17 | 5-Chloro-N4-[4-(N-cyclopropylsulfonylamino)methylphenyl]-N2-[3-methyl-4-(N-methylpiperizin-4-yl)phenyl]-2,4-pyrimidinediamine [II-203] | 1500
18 | 5-Chloro-N4-[4-(N-cyclopropylsulfonylamino)methylphenyl]-N2-[4-(N-ethylpiperizin-4-yl)phenyl]-2,4-pyrimidinediamine [II-205] | 135
19 | 5-Chloro-N4-[4-(N-cyclopropylsulfonylamino)methylphenyl]-N2-[4-(N-methylpiperizin-4-yl)phenyl]-2,4-pyrimidinediamine [II-188] | 224

Row | Compound | IC50 [nM]
20 | 5-Chloro-N4-[4-(N-cyclopropylsulfonylamino)methylphenyl]-N2-[4-[N-(methansulfonyl)piperizin-4-ylphenyl]-2,4-pyrimidinediamine [II-207] | 384
21 | 5-Chloro-N4-[4-(N-cyclopropylsulfonylamino)methylphenyl]-N2-[5-methyl-4-(N-methylpiperizin-4-yl)pyridin-3-yl]-2,4-pyrimidinediamine [II-225] | 120
22 | 5-Chloro-N4-[4-[N-(Cyclopropylsulfonyl)-N′-((3-ethoxycarbonyl)propion-1-yl)amino]methylphenyl]-N2-(3,5-dimethyl-4-methoxyphenyl)-2,4-pyrimidinediamine [II-140] | 251
23 | 5-Chloro-N4-[4-[N-cyclopropylsulfonyl)-N′-(3-(4-morpholine)propion-1-yl)amino]methylphenyl]-N2-(3,5-dimethyl-4-methoxyphenyl)-2,4-pyrimidinediamine [II-141] | 73.9
24 | 5-Chloro-N4-[(4-(dimethylamino)sulfonylamino)methylphenyl]-N2-[3,4,5-trimethoxyphenyl)-2,4-pyrimidinediamine [II-95] | 250
25 | 5-Chloro-N4[4-(N-cyclopropylsulfonylamino)ethylphenyl]-N2-[4-(6-methoxy-2-methyl-methoxy)phenyl]-2,4-pyrimidinediamine [II-50] | 472
26 | 5-Methyl-N4-[4-(N-cyclopropylsulfonylamino)methylphenyl]-N2-[2,4-dimethyl-5-chlorophenyl]-2,4-pyrimidinediamine [II-212] | 2200
27 | 5-Methyl-N4-[4-(N-cyclopropylsulfonylamino)methylphenyl]-N2-[4-(1-morpholinomethyl)phenyl]-2,4-pyrimidinediamine [II-222] | 946
28 | COc1cc(Nc2ncc(C)c(Nc3ccc4c(c3)C(NS(=O)(=O)C3CC3)CC4)n2)cc(OC)c1OC (racemic) [V-3] | 1640
29 | Cc1cnc(Nc2ccc(N3CCN(C)CC3)cc2)nc1Nc1ccc2c(c1)C(NS(=O)(=O)C1CC1)CC2 (racemic) [V-4, (+/−)-N4-[1-(Cyclopropylsulfonylamino)indan-6-yl]-5-methyl-N2-[4-(4-methyl-1-piperazinyl)phenyl]-2,4-pyrimidinediamine] | 686
30 | Cc1cnc(Nc2ccc(C3CCN(C)CC3)cc2)nc1Nc1ccc2c(c1)C(NS(=O)(=O)C1CC1)CC2 (racemic) [V-5, (+/−)-N4-[1-(Cyclopropylsulfonylamino)indan-6-yl]-5-methyl-N2-[4-(1-methyl-4-piperidinyl)pheny]-2,4-pyrimidinediamine] | 999
31 | Cc1cnc(Nc2ccc(C3=NCCN3)cc2)nc1Nc1ccc2c(c1)C(NS(=O)(=O)C1CC1)CC2 (racemic) [V-6, (+/−)-N4-[1-(Cyclopropylsulfonylamino)indan-6-yl]-N2-[4-(4,5-dihydro-1H-imidazol-2-yl)phenyl]-5-methyl-2,4-pyrimidinediamine] | 1120
32 | COc1c(C)cc(Nc2ncc(C)c(Nc3ccc4c(c3)C(NS(=O)(=O)C3CC3)CC4)n2)cc1C (racemic) [V-7, (+/−)-N4-[1-(Cyclopropylsulfonylamino)indan-6-yl]-N2-(3,5-dimethyl-4-methoxyphenyl)-5-methyl-2,4-pyrimidinediamine] | 1600
33 | COc1c(Cl)cc(Nc2ncc(C)c(Nc3ccc4c(c3)C(NS(=O)(=O)C3CC3)CC4)n2)cc1Cl (racemic) [V-8, (+/−)-N4-[1-(Cyclopropylsulfonylamino)indan-6-yl]-N2-(3,5-dichloro-4-methoxyphenyl)-5-methyl-2,4-pyrimidinediamine] | 3030
34 | Cc1cnc(Nc2ccc(N3CCN(C)CC3)cc2)nc1Nc1cccc(S(=O)(=O)N(C)C)c1 [I-14, N4-[(3-(1,1-Dimethylamino)sulfonyl)phenyl]-5-methyl-N2-[4-(4-methyl-1-piperazinyl)phenyl]-2,4-pyrimidinediamine] | 225
35 | COc1cc(Nc2ncc(Cl)c(Nc3cccc(S(=O)(=O)NC(C)(C)C)c3)n2)cc(OC)c1OC [I-15, 5-Chloro-N4-[3-(N-tert-butylsulfonyl)phenyl]-N2-[3,4,5-trimethoxyphenyl]-2,4-pyrimidinediamine] | 225
36 | CN1CCC(c2ccc(Nc3ncc(Cl)c(Nc4cccc(S(=O)(=O)NC(C)(C)C)c4)n3)cc2)CC1 [I-17, 5-Chloro-N4-[3-(N-tert-butylsulfonyl)phenyl]-N2-[4-(N-methylpiperidin-4-yl)phenyl]-2,4-pyrimidinediamine] | 990
37 | CN1CCN(c2ccc(Nc3nccc(Nc4cccc(S(=O)(=O)NC(C)(C)C)c4)n3)cc2)CC1 [I-19, N4-[3-(N-tert-butylsulfonyl)phenyl]-N2-[4-(4-methylpiperazine)-phenyl]-2,4-pyrimidinediamine] | 603
38 | Cc1cnc(Nc2cc(C)c(OCCN3CCOCC3)c(C)c2)nc1Nc1cccc(S(=O)(=O)NC(C)(C)C)c1 [I-20] | 189
